Key:
NIH 3T3 cells [1] = test: live cell imaging of DOPE-rhodamine uptake from lipid pattern; type: cell-based; conditions: cells cultured over lipid pattern for 25 hours; decrease starts after 20 hours, complete by 25 hours
Method: DOTAP is mixed with 1 mol % DOPE-rhodamine, and 2 μL was deposited in the M-type inkwell for the DPN 2000.
Microscopy for all the imaging except the supplementary video is done with a Nikon Eclipse Ti microscope. The printed patterns and the Retiga-SRV fast 1394 camera are used. Patterns are imaged in brightfield before cell culture. Nikon fluorescence filter sets B-2E/C FITC and G-2E/C TRITC are used for the live/dead cell assay. Imaging is done at 800 m sec exposure time with the 10× (NA=0.3) objective and at 1 second for the 4× (NA=0.13) objective. Lamp intensity for all imaging is set at 4. Microscopy for the live cell lipid uptake for the supplementary video is done with a Nikon TE-2000-E inverted microscope equipped with a Nikon Plan Apo 40× (NA=0.95) DIC objective.
FIGS. 10, 11, 12, 13, 14 and 15 show the uptake of DOPE-rhodamine-labeled DOTAP by NIH 3T3 cells. […] Fluorescence intensity is used as the indicator of the amount of lipid taken up by the cells. A higher fluorescence in cells indicates higher uptake of lipids. Grid lines 1022 and 1024 in FIG. 10 and grid lines 1026 and 1028 in FIGS. 10 and 11 divide the images of FIGS. 10 and 11 into areas 1032 and 1034, respectively, analyzed and compared for fluorescence intensity before and after cell incubation on the patterns. […]

NIH 3T3 cells [2] = type: cell-based; conditions: for cell death over drug pattern: lipid (DOTAP)-encapsulated drug pattern, FIG. 21
Method: NIH 3T3 cells (obtained from the American Type Culture Collection, CRL-1658™, and maintained according to the collections guidelines) for all experiments are seeded at 4×10^5 cells/mL and grown to 70% confluence in Dulbecco's Modified Eagle Medium supplemented with 10% Cosmic Calf Serum (Sigma Aldrich). Trypsin (0.25%) is used for cell detachment, and the medium is replaced with fresh medium 24 hours before the experiment. Cells are seeded onto the patterned glass coverslips by gently pipetting a drop of the cell suspension directly over each pattern to prevent the patterns from being washed away. The same method is used to seed other parts of the slide for use as control areas. The cells are incubated over the patterned areas for 48 hours.
Aliquots of valinomycin (20 mg/mL) and DOTAP (20 mg/mL), both dissolved in chloroform, are placed in an amber glass vial and serially diluted to produce valinomycin masses of 20, 10, 5, 2.5, 1.25 and 0.63 mg. Drying, liposome formation and cell culture are conducted as described above for the Rhodamine dose-response. Toxicity assays are performed after 24 and 48 hours.
Docetaxel (20 mg/mL) dissolved in DMSO is further serially diluted in Hank's buffered salt solution to produce seven solutions with docetaxel masses of 50, 25, 12.5, 6.25, 3.2, 1.6 and 0.8 mg respectively, each with a total volume of […]. The eighth is a solution of DMSO only (control) at the same volume as the 50 mg solution. These mixtures are added to […] of medium and added to the cells in the same manner as described above for the Rhodamine dose-response. Toxicity assays are performed after incubation for 48 hours.
The BacLight live/dead assay is purchased from Invitrogen. The cells are incubated with both SYTO 9 and propidium iodide for 20 min. The cells stained with both are counted as dead, and those stained with SYTO 9 only are counted as live.^34,35 All counting of live and dead cells is done by hand.
Valinomycin is tested first because of its quick action as a cytotoxic agent and immediate action upon incorporation into the cellular membrane. The drug acts as a potassium ionophore, facilitating loss of potassium and resulting in cell death. FIGS. 16, 17, 18 and 19 show a toxicity assay of cells that are cultured over a lipid multilayer microarray. […] In FIGS. 16, 17 and 18, arrows in 1612, 1614 and 1616 point to the same alignment mark. FIG. 16 is a brightfield image of DOTAP/valinomycin pattern before cell culture. […] FIG. 18 is a higher magnification of the square area 1702 of FIG. 17. Images are taken after 24 hours. Images in FIGS. 17 and 18 are the merged TRITC and FITC fluorescence channel images. FIG. 19 is a mosaic of images (TRITC filter set). Central square 1902 corresponds to FIG. 17, and the other squares are the areas immediately surrounding central square 1902. All live cells are stained green; nuclei of dead cells are stained red.
Taxotere® (docetaxel) is an anticancer drug and is a second-generation, semisynthetic analog of Taxol® (paclitaxel). Taxanes, which include paclitaxel and docetaxel, work by binding to microtubules and stabilizing them, thus preventing their disassembly and progression through mitosis, and therefore their functioning inside the cytoplasm. The cell may revert to the G1 phase or undergo apoptosis.^36 Cells are plated over patterns (such as that in FIG. 16) consisting of lipid only, lipid-encapsulated docetaxel and lipid-encapsulated valinomycin, all on the same glass coverslip and incubated for 48 hours. The results are shown in FIGS. 20, 21, 22, 23, 24, 25, 26, 27, 28 and 29.

[3] = NIH 3T3 cells, 48 hours, live/dead assay

1,2-dioleoyl-sn-glycerol-3-phosphoethanolamine-N-(lissamine rhodamine b sulfonyl) (ammonium salt) [DOPE-rhodamine]
critical uptake time (window in which fluorescence of absorbed spots disappears) (NIH 3T3 cells [1]): 5 h

CCCCCCCC/C=C\CCCCCCCC(=O)OCC(C[N+](C)(C)C)OC(=O)CCCCCCC/C=C\CCCCCCCC.[Cl-] (stereo not shown) [DOTAP, 1,2-dioleoyl-3-trimethylammonium-propane (chloride salt)]
toxicity of lipid-only pattern versus control with medium only (NIH 3T3 cells [2]; DOTAP-only pattern, NIH 3T3 cells, 48 hours, p>0.05): did not differ significantly

CC(=O)O[C@@]12CO[C@@H]1C[C@H](O)[C@@]1(C)C(=O)[C@H](O)C3=C(C)[C@@H](OC(=O)[C@H](O)[C@@H](NC(=O)OC(C)(C)C)c4ccccc4)C[C@@](O)([C@@H](OC(=O)c4ccccc4)[C@H]21)C3(C)C [docetaxel]
comparable concentration of docetaxel dissolved in DMSO delivered from solution (NIH 3T3 cells [2]; equivalent solution concentration for the toxicity of the docetaxel pattern, 48 hours): approximately 6.25 mg/mL
cell death over drug pattern (NIH 3T3 cells [2]; [3]): over 60%

CC(C)[C@@H]1NC(=O)[C@H](C)OC(=O)[C@@H](C(C)C)NC(=O)[C@@H](C(C)C)OC(=O)[C@H](C(C)C)NC(=O)[C@H](C)OC(=O)[C@@H](C(C)C)NC(=O)[C@@H](C(C)C)OC(=O)[C@H](C(C)C)NC(=O)[C@H](C)OC(=O)[C@@H](C(C)C)NC(=O)[C@@H](C(C)C)OC1=O [valinomycin]
toxicity level from the surface (cells killed) (NIH 3T3 cells [2]; DOTAP/valinomycin pattern (4:1 lipid-to-drug), NIH 3T3 cells, 24 hours, live/dead assay): about 11%
corresponding concentration of liposomal drug delivered from solution (NIH 3T3 cells [2]; equivalent solution concentration for the toxicity of the DOTAP/valinomycin pattern, 24 hours): about 0.1 mg/mL
cell death over drug pattern (NIH 3T3 cells [2]; [3]): about 25%
